Experimental data taken from US20200399238A1, “THERAPEUTIC AURONES” (MIDDLE TENNESSEE STATE UNIVERSITY, priority 2016, published 2020).
Like-named read-outs stand apart in the source and are kept apart here.

Key:
[1] = tested on: Trypanosoma cruzi Tulahuen cells expressing beta-galactosidase; assay: T. cruzi intracellular assay (beta-galactosidase, L6 host cells); settings: for Selectivity L6/TC-I: Table 3A; for Selectivity L6/TC-I / Selectivity L6/Tc-I: estimated from highest L6 dose tested where no L6 IC50; for IC50: Trypanosoma cruzi, TULAHUEN; for Selectivity L6/Tc-I: Table 3B
[2] = tested on: rat skeletal muscle cell line, L6; assay: cells; assay type: cell-based
[3] = tested on: Leishmania amazonensis promastigotes expressing beta-lactamase; assay: microbe, parasite or virus in culture; assay type: cell-based; settings: for IC50: Leishmania amazonensis
[4] = tested on: Trypanosoma brucei brucei 427 cells; assay: T. brucei culture and assay (PrestoBlue); assay type: cell-based
[5] = read-out: IC50 T. cruzi, Table 1, intracellular assay, mean of 2(+) trials (^c one trial)
[6] = read-out: IC50 T. cruzi, Table 2, intracellular assay, mean of 2(+) independent trials
[7] = read-out: IC50 TC-I, Table 3A, weighted means of two or more independent trials
[8] = Rattus norvegicus, Table 1, read-out: IC50 Toxicity (L6)
[9] = Rattus norvegicus, Table 3A, weighted means of two or more independent trials, read-out: IC50 L6
[10] = Table 2, L6 IC50 / L. amazonensis IC50
[11] = Trypanosoma brucei, Table 1, mean of 2(+) independent trials, read-out: IC50 T. brucei
[12] = Table 1, intracellular T. cruzi IC50
[13] = Table 2, L6 IC50 / T. cruzi IC50 (intracellular assay)
[14] = read-out: IC50 L. amaz. (footnote c: value obtained from one trial)
[15] = Table 2, L6 IC50 / T. brucei IC50
[16] = Table 3A, estimated from highest L6 dose tested where no L6 IC50
[17] = read-out: IC50 TC-I, Table 3B, weighted means of two or more independent trials
[18] = Rattus norvegicus, Table 3B, weighted means of two or more independent trials, read-out: IC50 L6
[19] = Table 2, L6 mammalian cells, read-out: IC50 Toxicity (L6)
[20] = Table 3B, estimated from highest L6 dose tested where no L6 IC50

Row | Compound | Selectivity L6/TC-I [1] | IC50 [1, 5] [µM] | IC50 [1, 6] [µM] | IC50 [1, 7] [µM] | IC50 [2, 8] [µM] | IC50 [2, 9] [µM] | IC50 ([3]; read-out: IC50 L. amaz.) [µM] | Selectivity L6/La ([3]; Table 1) | Selectivity L6/La [3, 10] | melting point [°C] | IC50 [4, 11] [µM] | Selectivity L6/Tc [1, 12] | Selectivity L6/Tc [1, 13] | Selectivity L6/Tb ([4]; Table 1) | Selectivity L6/Tb [4, 15] | IC50 [1, 17] [µM] | IC50 [2, 18] [µM] | also measured
1 | CC(C)(C)c1ccc(/C=C2\Oc3ccccc3C2=O)cc1 [Aurone 3008, (Z)-2-(4-(tert-butyl)benzylidene)benzofuran-3(2H)-one] | 7.94 | > 50 | > 50 | 12.5 | 99.3 | 99.3 | 3.57 | 27.81 | 27.81 | 87 to 90 | > 50 | – | – | – | – | – | – | IC50 ([4]; Table 2, mean of 2(+) independent trials, read-out: IC50 T. brucei): > 50 µM
2 | O=C1/C(=C/c2ccccc2Br)Oc2ccccc21 [Aurone 9006, (Z)-2-(2-bromobenzylidene)benzofuran-3(2H)-one] | 10.61 | 21.3 | 21.3 | 21.3 | 226 | 226 | < 1 | >226.08 | >226.08 | 134 to 140 | 28.3 | 10.61 | 10.61 | 7.98 | 7.98 | – | – | IC50 [3, 14]: < 1 µM; Selectivity L6/Tb [4, 16]: 7.98
3 | O=C1/C(=C/c2ccc(C(F)(F)F)cc2)Oc2ccccc21 [Aurone 9084, (Z)-2-(4-(trifluoromethyl)benzylidene)benzofuran-3(2H)-one] | – | 9.38 | 9.38 | – | > 400 | – | 2.94 | – | – | 98 to 102 | 20.4 | – | – | – | – | – | – | –
4 | O=C1/C(=C/c2cccnc2)Oc2ccccc21 [Aurone 9253, (Z)-2-(pyridin-3-ylmethylene)benzofuran-3(2H)-one] | – | 17.8 | 17.8 | – | < 100 | – | 7.38 | – | – | 122 to 123 | > 50 | – | – | – | – | 17.8 | > 100 | IC50 ([4]; Trypanosoma brucei, read-out: IC50 TB): > 50 µM
5 | COc1ccc2c(c1)O/C(=C\c1ccc(Br)cc1)C2=O [Aurone 5005, (Z)-2-(4-bromobenzylidene)-6-methoxybenzofuran-3(2H)-one] | – | > 50 | > 50 | – | 181 | – | 14.3 | – | – | 153 | 47.2 | – | – | – | – | – | – | –
6 | O=C1/C(=C/c2ccsc2)Oc2ccccc21 [Aurone 3004, (Z)-2-(thiophen-3-ylmethylene)benzofuran-3(2H)-one] | – | 9.02 | 9.02 | – | > 100 | – | 24.2 | >4.13 | >4.13 | 125 to 126 | 38.7 | >11.09 | >11.09 | >2.58 | >2.58 | 9.02 | > 100 | Selectivity L6/Tc-I [1]: >11.09; IC50 ([1]; read-out: T. cruzi IC50 dose): 9.02 µM; IC50 [2, 19]: > 100 µM; activity against T. brucei [4]: moderate activity; Selectivity L6/Tb [4, 20]: >2.58
7 | O=C1/C(=C/c2ccccc2Cl)Oc2ccccc21 [Aurone 9007, (Z)-2-(2-chlorobenzylidene)benzofuran-3(2H)-one] | 18.72 | 12.7 | 12.7 | 12.7 | 238 | 238 | 17.5 | 13.55 | 13.55 | 118 to 126 | 11.3 | 18.72 | 18.72 | 21.02 | 21.02 | – | – | IC50 [3, 14]: 17.5 µM; Selectivity L6/Tb [4, 16]: 21.02
8 | O=C1/C(=C/c2ccoc2)Oc2ccccc21 [Aurone 3005, (Z)-2-(furan-3-ylmethylene)benzofuran-3(2H)-one] | – | 7.47 | 7.47 | – | > 100 | – | 42.7 | >2.34 | >2.34 | 111 to 112 | 41.9 | >13.39 | >13.39 | >2.39 | >2.39 | 7.47 | > 100 | Selectivity L6/Tc-I [1]: >13.39; IC50 [2, 19]: > 100 µM; Selectivity L6/Tb [4, 20]: >2.39
9 | O=C1/C(=C/c2sccc2Br)Oc2ccccc21 [Aurone 9060] | – | 34.6 | 34.6 | – | > 100 | – | 1.36 | – | – | 176 to 180 | > 50 | – | – | – | – | 34.6 | > 100 | –
10 | O=C1/C(=C/c2ccccn2)Oc2ccccc21 [Aurone 9051, (Z)-2-(pyridin-2-ylmethylene)benzofuran-3(2H)-one] | – | 19.4 | 19.4 | – | 79.6 | – | 6.26 | – | – | 119 to 121 | 23.2 | – | – | – | – | 19.4 | 79.6 | IC50 ([4]; Trypanosoma brucei, read-out: T. brucei IC50 dose): 23.2 µM
